Reference: patent US10030012B2, “Piperidin-1-yl and azepin-1-yl carboxylates as muscarinic M4 receptor agonists” (Heptares Therapeutics Limited, priority 2013, dated 2018)

Key:
human M4 receptor = human M4 receptor (Homo sapiens (Human), UniProt P08173); assay: In vitro M4 functional assay (intracellular calcium, FLiPR Tetra); format: cell-based; details: for Emax: relative efficacy to an EC100 concentration of acetylcholine, read-out: M4 % RE
Protocol: (§1) In Vitro M4 &M2 Functional Assay
(§2) The functional activity of compounds at the M4 and M2 receptors was determined by measuring changes in the level of intracellular calcium ions caused by signalling cascades mediated by the receptor. Intracellular Calcium levels were measured using a calcium sensitive fluorescent dye, calcium 5 (Molecular Devices) The changes in fluorescence were monitored by a fluorescent imager, FLiPR Tetra (Molecular devices). Increases in intracellular calcium were readily detected upon activation of both receptors by the muscarinic receptor agonist Acetylcholine.
(§3) CHOK1 cells stably expressing human M4 or M2 receptor and co-expressing the accessory g-protein Gα16 were routinely grown as monolayers in Hams-F12 medium (Invitrogen) supplemented with 10% foetal bovine serum (FBS) (Hyclone), 500 ug/mL Geneticin and 250 ug/mL zeocin (both invitrogen) in 5% CO2 at 37° C. Once confluent is cells cryopreserved by freezing at −186° C. in freezing solution (90% FBS 10% DMSO) (Sigma-Aldrich Co.). Twenty-four hours prior to testing cells resuscitated and freezing media removed via centrifugation, cells then seeded in a black walled clear bottom 384 well plates (Corning) at a density of 15,000 cells/well in Hams F12 media supplemented with 10% FBS. On the day of assay, growth media was removed and replaced with 63 μl of Calcium 5 dye solution (Molecular Devices) in assay buffer (HBSS, 20 mM HEPES, 0.1% BSA, 1 mM Probenecid pH7.4 (Sigma-Aldrich Co.)) per well (each vial of Calcium 5 resuspended in 27 mL of assay buffer). Cells were then incubated for 45 minutes at 37° C., 5% CO2. Compound was serially diluted in DMSO (log/half log) before being diluted 1:20 with assay buffer. 7 μl of compound diluted in assay buffer was then added to cells on FLiPR tetra and fluorescence intensity measured for 5 minutes. EC50 values for compounds were determined from ten point half log scale dose-response studies and represent the concentration of compound required to […] maximal response. Curves were generated using the average of duplicate wells for each data point and analyzed using non-linear regression of four parameter dose response. Percentage Relative efficacy (RE) to an EC100 concentration of acetylcholine was reported for all compounds. The results are set out in Table 3 below in which the term “No Response” means that there was no significant response of calcium flux in the assay indicative of agonism.

human M2 receptor = human M2 receptor (Homo sapiens (Human), UniProt P08172); assay: In vitro M2 functional assay (intracellular calcium, FLiPR Tetra); format: cell-based; details: for EC50 / M2 EC50: CHOK1 cells stably expressing human M2 receptor and Gα16, calcium flux, No Response = no significant response of calcium flux indicative of agonism; for activation at 10 µM: response at 10 μM compound, relative to an EC100 concentration of acetylcholine, read-out: M2 % RE @ 10 μM; for M2 % RE: relative efficacy to an EC100 concentration of acetylcholine
Sequence of human M2 receptor (P08172 whole entry): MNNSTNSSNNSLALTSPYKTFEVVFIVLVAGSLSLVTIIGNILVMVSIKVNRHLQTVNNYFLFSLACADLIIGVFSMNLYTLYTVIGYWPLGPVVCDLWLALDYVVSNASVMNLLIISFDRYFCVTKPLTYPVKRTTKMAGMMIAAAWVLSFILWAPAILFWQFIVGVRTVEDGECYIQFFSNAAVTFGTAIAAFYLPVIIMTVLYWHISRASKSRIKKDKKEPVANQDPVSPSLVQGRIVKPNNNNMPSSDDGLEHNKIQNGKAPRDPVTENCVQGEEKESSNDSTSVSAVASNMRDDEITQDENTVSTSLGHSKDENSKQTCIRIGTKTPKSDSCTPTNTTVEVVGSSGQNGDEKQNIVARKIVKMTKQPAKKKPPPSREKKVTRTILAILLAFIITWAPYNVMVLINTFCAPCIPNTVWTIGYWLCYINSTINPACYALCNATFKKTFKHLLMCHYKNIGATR
Protocol: as §1, §2, §3

[1] = CHOK1 cells stably expressing human M4 receptor and Gα16, calcium flux

Sequence of human M4 receptor (P08173 whole entry): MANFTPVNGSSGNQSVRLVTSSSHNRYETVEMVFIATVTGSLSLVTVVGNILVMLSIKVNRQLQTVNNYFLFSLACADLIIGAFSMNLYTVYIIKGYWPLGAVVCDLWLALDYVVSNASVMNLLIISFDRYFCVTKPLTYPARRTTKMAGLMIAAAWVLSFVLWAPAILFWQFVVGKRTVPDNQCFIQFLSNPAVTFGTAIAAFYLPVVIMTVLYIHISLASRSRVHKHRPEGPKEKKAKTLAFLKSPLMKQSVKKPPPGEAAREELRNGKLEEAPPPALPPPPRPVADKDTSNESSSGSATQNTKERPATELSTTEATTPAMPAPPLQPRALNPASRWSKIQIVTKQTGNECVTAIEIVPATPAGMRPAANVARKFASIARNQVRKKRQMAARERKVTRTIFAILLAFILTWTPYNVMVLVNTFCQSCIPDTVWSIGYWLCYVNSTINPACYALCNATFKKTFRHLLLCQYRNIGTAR

| EC50 (human M4 receptor; [1]) [nM] | Emax (human M4 receptor) [%] | EC50 (human M2 receptor) [nM] | activation at 10 µM (human M2 receptor) [%] | M2 EC50 (human M2 receptor) | M2 % RE (human M2 receptor) [%] | M4 EC50 (human M4 receptor; [1]) | Structure (SMILES) |
| --- | --- | --- | --- | --- | --- | --- | --- |
| 190 | 53 |  |  | No Response |  |  | CCOC(=O)N1CCCC(N2CCC(c3cc[nH]n3)CC2)CC1 (centres unmarked) [Example 6, Ethyl 4-[4-(1H-pyrazol-3-yl)piperidin-1yl]azepane-1-carboxylate] |
| 1050 | 62 |  |  | No Response |  |  | CCOC(=O)N1CCCC(N2CCC(c3nccn3C)CC2)CC1 (centres unmarked) [Example 9, Ethyl 4-[4-(1-methyl-1H-imidazol-2-yl)piperidin-1-yl]azepane-1-carboxylate] |
| 1740 | 44 |  |  | No Response |  |  | CCOC(=O)N1CCCC(N2CCC(c3nccn3CC)CC2)CC1 (centres unmarked) [Example 10, Ethyl 4-[4-(1-ethyl-1H-imidazol-2-yl)piperidin-1-yl]azepane-1-carboxylate] |
| 960 | 41 |  |  | No Response |  |  | CCCn1ccnc1C1CCN(C2CCCN(C(=O)OCC)CC2)CC1 (centres unmarked) [Example 11, Ethyl 4-[4-(1-propyl-1H-imidazol-2-yl)piperidin-1-yl]azepane-1-carboxylate] |
| 520 | 82 | > 10000 | 28 |  |  |  | CCOC(=O)N1CCCC(N2CCC(n3nccc3C)CC2)CC1 (centres unmarked) [Example 12, Ethyl 4-[4-(5-methyl-1H-pyrazol-1-yl)piperidin-1-yl]azepane-1-carboxylate] |
| 750 | 55 |  |  | No Response |  |  | CCOC(=O)N1CCCC(N2CCC(c3ccnn3C)CC2)CC1 (centres unmarked) [Example 14, Ethyl 4-[4-(1-methyl-1H-pyrazol-5-yl)piperidin-1-yl]azepane-1-carboxylate] |
| 1280 | 44 |  |  | No Response |  |  | CCOC(=O)N1CCCC(N2CCC(c3nnc(C(C)C)o3)CC2)CC1 (centres unmarked) [Example 15, Ethyl 4-(4-(5-isopropyl-1,3,4-oxadiazol-2-yl)piperidin-1-yl)azepane-1-carboxylate] |
| 400 | 72 | > 10000 | 24 |  |  |  | CCOC(=O)N1CCCC(N2CCC(n3ccc(C)n3)CC2)CC1 (centres unmarked) [Example 16, Ethyl 4-[4-(3-methyl-1H-pyrazol-1-yl)piperidin-1-yl]azepane-1-carboxylate] |
| 130 | 51 |  |  | No Response |  |  | CCOC(=O)N1CCCC(N2CCC(c3nccs3)CC2)CC1 (centres unmarked) [Example 26, Ethyl 4-[4-(1,3-thiazol-2-yl)piperidin-1-yl]azepane-1-carboxylate] |
|  |  |  |  |  |  | No response | CCOC(=O)N1CCC[C@@H](N2CCC(c3nccn3C)CC2)CC1 [Example 84, Ethyl (4R)-4-[4-(1-methyl-1H-imidazol-2-yl)piperidin-1-yl]azepane-1-carboxylate] |

The remaining lines, values behind:

| Structure (SMILES) | EC50 (human M4 receptor; [1]) [nM] | Emax (human M4 receptor) [%] | EC50 (human M2 receptor) [nM] | activation at 10 µM (human M2 receptor) [%] | M2 EC50 (human M2 receptor) | M2 % RE (human M2 receptor) [%] | M4 EC50 (human M4 receptor; [1]) |
| --- | --- | --- | --- | --- | --- | --- | --- |
| CCOC(=O)N1CCC(N2CCC(c3nccn3C)CC2)CC1 [Example 1, Ethyl 4-[4-(1-methyl-1H-imidazol-2-yl)piperidin-1-yl]piperidine-1-carboxylate] | 2360 | 49 | > 10000 | 34 |  |  |  |
| CCOC(=O)N1CCCC(N2CCC(c3nccn3CC(=O)NC3CCCCC3)CC2)CC1 (centres unmarked) [Example 2, Ethyl 4-(4-{1-[(cyclohexylcarbamoyl)methyl]-1H-imidazol-2-yl}piperidin-1-yl)azepane-1-carboxylate] | 1870 | 51 |  |  | No Response |  |  |
| CCOC(=O)N1CCCC(N2CCC(n3cccc3)CC2)CC1 (centres unmarked) [Example 3, Ethyl 4-[4-(1H-pyrrol-1-yl)piperidin-1yl]azepane-1-carboxylate] | 330 | 59 | 1540 |  |  | 38 |  |
| CCOC(=O)N1CCCC(N2CCC(n3cccn3)CC2)CC1 (centres unmarked) [Example 4, Ethyl 4-[4-(1H-pyrazol-1-yl)piperidin-1yl]azepane-1-carboxylate] | 140 | 74 |  |  | No Response |  |  |
| CCOC(=O)N1CCCC(N2CCC(n3nccc3-c3ccc(Cl)cc3)CC2)CC1 (centres unmarked) [Example 5, Ethyl 4-{4-[5-(4-chlorophenyl)-1H-pyrazol-1-yl]piperidin-1-yl}azepane-1-carboxylate] | 250 | 49 | > 10000 | 25 |  |  |  |
| CCOC(=O)N1CCCC(N2CCC(n3nccc3-c3ccnn3C)CC2)CC1 (centres unmarked) [Example 7, Ethyl 4-{4-[5-(1-methyl-1H-pyrazol-5-yl)-1H-pyrazol-1-yl]piperidin-1-yl}azepane-1-carboxylate] | 260 | 75 | > 10000 | 26 |  |  |  |
| CCOC(=O)N1CCCC(N2CCC(n3cc(-c4ccc(Cl)cc4)cn3)CC2)CC1 (centres unmarked) [Example 8, Ethyl 4-{4-[4-(4-chlorophenyl)-1H-pyrazol-1-yl]piperidin-1-yl}azepane-1-carboxylate] | 320 | 59 |  |  | No Response |  |  |
| CCOC(=O)N1CCCC(N2CCC(OC)(c3nccn3C)CC2)CC1 (centres unmarked) [Example 13, Ethyl 4-[4-methoxy-4-(1-methyl-1H-imidazol-2-yl)piperidin-1-yl]azepane-1-carboxylate] | 2880 | 24 |  |  | No Response |  |  |
| CCOC(=O)N1CCCC(N2CCC(c3cc(-c4cccs4)n[nH]3)CC2)CC1 (centres unmarked) [Example 17, Ethyl 4-{4-[3-(thiophen-2-yl)-1H-pyrazol-5-yl]piperidin-1-yl}azepane-1-carboxylate] | 810 | 50 |  |  | No Response |  |  |
| CCOC(=O)N1CCCC(N2CCC(n3cc(-c4ccc(F)cc4)cn3)CC2)CC1 (centres unmarked) [Example 18, Ethyl 4-{4-[4-(4-fluorophenyl)-1H-pyrazol-1-yl]piperidin-1-yl}azepane-1-carboxylate] | 410 | 45 |  |  | No Response |  |  |
| CCOC(=O)N1CCCC(N2CCC(c3nccn3CC(=O)NC3CC3)CC2)CC1 (centres unmarked) [Example 19, Ethyl 4-(4-{1-[(cyclopropylcarbamoyl)methyl]-1H-imidazol-2-yl}piperidin-1-yl)azepane-1-carboxylate] | 1510 | 64 |  |  | No Response |  |  |
| CCOC(=O)N1CCCC(N2CCC(n3nccc3C3CC3)CC2)CC1 (centres unmarked) [Example 20, Ethyl 4-[4-(5-cyclopropyl-1H-pyrazol-1-yl)piperidin-1-yl]azepane-1-carboxylate] | 190 | 77 | 2260 |  |  | 37 |  |
| CCOC(=O)N1CCCC(N2CCC(n3nccc3C(=O)N(C)C)CC2)CC1 (centres unmarked) [Example 21, Ethyl 4-{4-[5-(dimethylcarbamoyl)-1H-pyrazol-1-yl]piperidin-1-yl}azepane-1-carboxylate] | 2680 | 45 |  |  | No Response |  |  |
| CCOC(=O)N1CCCC(N2CCC(n3nccc3-c3cnn(C(C)C)c3)CC2)CC1 (centres unmarked) [Example 22, Ethyl 4-(4-{5-[1-(propan-2-yl)-1H-pyrazol-4-yl]-1H-pyrazol-1-yl}piperidin-1-yl)azepane-1-carboxylate] | 200 | 68 | 680 |  |  | 38 |  |
| CCOC(=O)N1CCCC(N2CCC(n3nccc3COC)CC2)CC1 (centres unmarked) [Example 23, Ethyl 4-{4-[5-(methoxymethyl)-1H-pyrazol-1-yl]piperidin-1-yl}azepane-1-carboxylate] | 750 | 67 |  |  | No Response |  |  |
| CCOC(=O)N1CCCC(N2CCC(n3nccc3C(=O)NCC3CC3)CC2)CC1 (centres unmarked) [Example 24, Ethyl 4-(4-{5-[(cyclopropylmethyl)carbamoyl]-1H-pyrazol-1-yl}piperidin-1-yl)azepane-1-carboxylate] | 1370 | 45 |  |  | No Response |  |  |
| CCOC(=O)N1CCCC(N2CCC(n3nccc3-c3sc(C)nc3C)CC2)CC1 (centres unmarked) [Example 25, Ethyl 4-{4-[5-(dimethyl-1,3-thiazol-5-yl)-1H-pyrazol-1-yl]piperidin-1-yl}azepane-1-carboxylate] | 270 | 46 |  |  | No Response |  |  |
| CCOC(=O)N1CCC[C@@H](N2CCC(n3cccn3)CC2)CC1 [Example 82, Ethyl (4R)-4-[4-(1H-pyrazol-1-yl)piperidin-1-yl]azepane-1-carboxylate] | 460 | 80 |  |  |  |  |  |
